Literature values as cited in US20040019115A1, “Use of milnacipran for the treatment of tension-type headache” (priority 2002, published 2004).

Settings: patients with chronic tension-type headache, prophylactic treatment

SMILES: CN(C)CCC=C1c2ccccc2CCc2ccccc21 [Amitriptyline]
- reduction of headache: 30%
